Test results from the supplement of paper PMC10307832.

Legend:
Assay in all cases: relative viability (nuclei count vs DMSO), 5 days (fraction); higher = more cells survive
[1] = compound: COc1cc2c(Oc3ccc4[nH]c(C)cc4c3F)ncnc2cc1OCCCN1CCCC1 [Cediranib] + C[C@]1(O)C[C@@H](c2nc(-c3ccc4ccc(-c5ccccc5)nc4c3)c3c(N)nccn32)C1 [Linsitinib] (partner 1 µM)
Summary of the method: (§1)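 Lung cancer cell lines were pin-tool dosed in 1536-well plates on the day after seeding, with either a lone drug or a fixed anchor-drug dose plus five library-drug doses (not always all listed) in √10 steps. Nuclei were counted on 4× images after 5 days. Relative viability is the ratio of treated-well to vehicle-well nuclei counts, with each value a median of duplicate plates.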

[2] = compound: COc1cc2c(Oc3ccc4[nH]c(C)cc4c3F)ncnc2cc1OCCCN1CCCC1 [Cediranib] + O=C(CCCCCCC(=O)Nc1ccccc1)NO [Vorinostat] (partner 1 µM)
Summary of the method: as §1

[3] = compound: O=C(C[C@H]1NCCC[C@@H]1O)Cn1cnc2cc(Br)c(Cl)cc2c1=O (racemic) [Halofuginone] + Cc1nc(NC(=O)N2CCC[C@H]2C(N)=O)sc1-c1ccnc(C(C)(C)C(F)(F)F)c1 [Alpelisib] (partner 2 µM)
Summary of the method: as §1

[4] = compound: O=C(C[C@H]1NCCC[C@@H]1O)Cn1cnc2cc(Br)c(Cl)cc2c1=O (racemic) [Halofuginone] + Cc1nc(Nc2ncc(C(=O)Nc3c(C)cccc3Cl)s2)cc(N2CCN(CCO)CC2)n1 [Dasatinib] (partner 0.075 µM)
Summary of the method: as §1

| Cell Line | relative viability ([1]; first compound 0.04 µM) | relative viability ([1]; first compound 0.1265 µM) | relative viability ([1]; first compound 0.4 µM) | relative viability ([1]; first compound 1.265 µM) | relative viability ([1]; first compound 4 µM) | relative viability ([2]; first compound 0.04 µM) | relative viability ([2]; first compound 0.1265 µM) | relative viability ([2]; first compound 0.4 µM) | relative viability ([2]; first compound 1.265 µM) | relative viability ([2]; first compound 4 µM) | relative viability ([3]; first compound 0.001 µM) | relative viability ([3]; first compound 0.003162 µM) | relative viability ([3]; first compound 0.01 µM) | relative viability ([3]; first compound 0.03162 µM) | relative viability ([3]; first compound 0.1 µM) | relative viability ([4]; first compound 0.001 µM) | relative viability ([4]; first compound 0.003162 µM) | relative viability ([4]; first compound 0.01 µM) | relative viability ([4]; first compound 0.03162 µM) | relative viability ([4]; first compound 0.1 µM) |
| --- | --- | --- | --- | --- | --- | --- | --- | --- | --- | --- | --- | --- | --- | --- | --- | --- | --- | --- | --- | --- |
| HCC-78 | 0.664 | 0.625 | 0.478 | 0.487 | 0.502 | 0.45 | 0.367 | 0.443 | 0.499 | 0.49 | 0.409 | 0.327 | 0.299 | 0.374 | 0.215 | 0.44 | 0.364 | 0.357 | 0.4 | 0.503 |
| HCC-366 | 0.65 | 0.634 | 0.582 | 0.542 | 1.05 | 0.346 | 0.401 | 0.29 | 0.287 | 0.394 | 0.369 | 0.412 | 0.449 | 0.385 | 0.197 | 0.709 | 0.804 | 0.684 | 0.66 | 0.414 |
| HCC-827 | 1.02 |  | 0.945 | 0.949 | 0.991 | 0.847 | 0.574 | 0.846 | 0.729 | 1.12 | 0.98 | 0.959 | 0.908 | 1.07 | 0.815 | 0.249 | 0.415 | 0.31 | 0.493 | 0.359 |
| HOP-62 | 1.11 |  | 1.04 | 0.853 | 1.18 | 0.633 | 0.418 | 0.575 | 0.468 | 0.896 | 0.992 | 1.03 | 0.902 | 1.04 | 0.423 | 0.641 | 0.75 | 0.737 | 0.545 | 0.369 |
| IA-LM | 0.629 | 0.772 | 0.586 | 0.436 | 0.634 | 1.12 |  | 0.895 | 1.03 | 1.06 | 0.829 | 0.982 | 0.664 | 0.606 | 0.161 |  |  |  |  |  |
| LC-2-ad | 0.871 | 0.831 | 0.842 | 0.771 | 0.806 | 0.678 | 0.625 | 0.669 | 0.825 | 0.705 | 0.952 | 0.847 | 0.861 | 0.772 | 0.334 | 0.711 | 0.517 | 0.511 | 0.565 | 0.209 |
| LCLC-97TM1 | 0.192 |  | 0.175 | 0.144 | 0.28 | 0.655 |  | 0.536 | 0.707 | 1.08 | 0.298 | 0.23 | 0.305 | 0.209 | 0.199 | 0.78 | 0.902 | 0.775 | 0.826 | 0.775 |
| LCLC-103H | 1.19 | 1.12 | 1.04 | 1.02 | 1.18 | 0.824 | 0.572 | 0.767 | 0.78 | 0.898 | 1.09 | 1.02 | 0.915 | 0.954 | 0.956 | 0.551 | 0.423 | 0.472 | 0.48 | 0.388 |
| LK-2 | 0.944 | 0.492 | 0.651 | 0.548 | 0.51 | 0.352 | 0.332 | 0.421 | 0.353 | 0.279 | 0.949 | 1.13 | 1.02 | 1.14 | 0.926 | 0.318 | 0.329 | 0.328 | 0.251 | 0.26 |
| LOU-NH91 | 0.905 | 1.2 | 0.915 | 0.969 | 0.759 | 0.898 | 0.696 | 0.873 | 0.823 | 0.857 | 0.774 | 0.731 | 0.721 | 0.741 | 0.64 | 0.632 | 0.578 | 0.555 | 0.582 | 0.498 |
| LU99A | 0.517 |  | 0.565 | 0.518 | 0.573 | 0.456 |  | 0.51 | 0.407 | 0.578 | 0.553 | 0.488 | 0.538 | 0.475 | 0.326 | 0.743 | 0.584 | 0.453 | 0.53 | 0.392 |
| NCI-H522 |  |  |  |  |  | 0.842 | 0.472 | 0.925 | 0.817 | 0.811 |  |  |  |  |  | 0.894 | 0.863 | 1.06 | 0.806 | 0.881 |
| NCI-H1299 | 1 | 0.977 | 0.96 | 0.988 | 0.947 |  |  |  |  |  | 1.04 | 1.09 | 1.02 | 1.01 | 1.04 |  |  |  |  |  |
| NCI-H1563 | 1.27 | 1.32 | 1.22 | 1.3 | 1.22 |  |  |  |  |  | 0.874 | 0.935 | 0.851 | 0.633 | 0.508 | 0.477 | 0.432 | 0.418 | 0.487 | 0.408 |
| NCI-H1623 |  |  |  |  |  |  |  |  |  |  |  |  |  |  |  | 0.588 | 0.43 | 0.523 | 0.468 | 0.394 |
| NCI-H1648 |  |  |  |  |  | 0.569 | 0.474 | 0.511 | 0.271 | 0.425 |  |  |  |  |  |  |  |  |  |  |
| NCI-H1650 |  |  |  |  |  | 0.629 | 0.546 | 0.599 | 0.548 | 0.679 |  |  |  |  |  | 0.339 | 0.329 | 0.293 | 0.2 | 0.166 |
| NCI-H1703 | 0.458 | 0.452 | 0.372 | 0.26 | 0.183 |  |  |  |  |  | 0.334 | 0.398 | 0.239 | 0.27 | 0.165 |  |  |  |  |  |
| NCI-H1792 | 0.61 | 0.701 | 0.535 | 0.674 | 0.574 |  |  |  |  |  | 0.795 | 0.724 | 0.702 | 0.662 | 0.686 | 0.973 | 0.791 | 0.844 | 0.76 | 0.607 |
| NCI-H2170 |  |  |  |  |  | 0.88 |  | 0.793 | 0.718 | 0.962 | 0.863 | 0.846 | 0.799 | 0.681 | 0.656 | 0.623 | 0.639 | 0.575 | 0.444 | 0.473 |
| NCI-H2342 |  |  |  |  |  | 0.712 | 0.791 | 0.733 | 0.613 | 0.758 |  |  |  |  |  | 0.302 | 0.326 | 0.309 | 0.326 | 0.378 |
| SW 900 |  |  |  |  |  | 0.425 | 0.413 | 0.438 | 0.478 | 0.495 |  |  |  |  |  | 1 | 0.677 | 0.555 | 0.616 | 0.163 |
